What was measured:
[1] = target: T1, FLT3(D835Y) (Homo sapiens, UniProt P36888, D835Y); assay: Binding constant (Kd), competition binding with qPCR readout
T1 construct: made in house; host or cells: E. coli BL21-derived host (T7 phage) or HEK-293

[2] = tested on: GRANTA-519; assay: Cytotoxicity, MTS cell viability; format: cell-based; details: Homo sapiens, 72 h, MCL, 3 days MTS
Procedure: (§1) Cells were seeded in a 96 well plate and treated with either vehicle (DMSO) or compound 7 at 10 different concentrations for 3 days at 37° C. and 5% CO2. Cell viability was assessed using CellTiter 96 AQueous one solution (MTS Promega Cat#G3581), and IC50 values calculated using GraphPad Prism 7 software.
(§2) Cytotoxicity procedure: Cells were seeded in 96-well plate and treated with vehicle DMSO or Compound 7 at a specified concentration and incubated for 72 hours.

[3] = tested on: Jeko-1; assay: Cytotoxicity, MTS cell viability; format: cell-based; details: Homo sapiens, 72 h, MCL, 3 days MTS
Procedure: as §1, §2

[4] = tested on: Mino; assay: Cytotoxicity, MTS cell viability; format: cell-based; details: Homo sapiens, 72 h, MCL, 3 days MTS
Procedure: as §1, §2

[5] = tested on: RL; assay: Cytotoxicity, MTS cell viability; format: cell-based; details: Homo sapiens, 72 h, DLBCL / GCB-DLBCL, 3 days MTS
Procedure: as §1, §2

[6] = tested on: RS411; assay: Cytotoxicity, MTS cell viability; format: cell-based; details: Homo sapiens, RS4-11, 72 h, ALL / B-ALL, 3 days MTS
Procedure: as §1, §2

[7] = tested on: Raji; assay: Cytotoxicity, MTS cell viability; format: cell-based; details: Burkitt's, 3 days MTS
Procedure: as §1, §2

[8] = tested on: Ramos; assay: Cytotoxicity, MTS cell viability; format: cell-based; details: Homo sapiens, 72 h, Burkitt's, 3 days MTS
Procedure: as §1, §2

[9] = tested on: EOL-1; assay: Cytotoxicity, MTS cell viability; format: cell-based; details: Homo sapiens, EOL1, AML, 72 hour MTS
Procedure: as §2

[10] = tested on: HEL92.1.7; assay: Cytotoxicity, MTS cell viability; format: cell-based; details: Homo sapiens, HEL 92.1.7, AML, 72 hour MTS
Procedure: as §2

[11] = tested on: HL60; assay: Cytotoxicity, MTS cell viability; format: cell-based; details: Homo sapiens, HL-60, AML, 72 hour MTS
Procedure: as §2

[12] = tested on: Jurkat; assay: Cytotoxicity, MTS cell viability; format: cell-based; details: Homo sapiens, ALL, 72 hour MTS
Procedure: as §2

[13] = tested on: KG-1; assay: Cytotoxicity, MTS cell viability; format: cell-based; details: Homo sapiens, AML, 72 hour MTS
Procedure: as §2

[14] = tested on: MUTZ-8; assay: Cytotoxicity, MTS cell viability; format: cell-based; details: AML, 72 hour MTS
Procedure: as §2

[15] = tested on: MV4-11; assay: Cytotoxicity, MTS cell viability; format: cell-based; details: Homo sapiens, AML, 72 hour MTS
Procedure: as §2

[16] = tested on: Molm-13; assay: Cytotoxicity, MTS cell viability; format: cell-based; details: Homo sapiens, AML, 72 hour MTS
Procedure: as §2

[17] = tested on: NOM0-1; assay: Cytotoxicity, MTS cell viability; format: cell-based; details: AML, 72 hour MTS
Procedure: as §2

[18] = tested on: SKM-1; assay: Cytotoxicity, MTS cell viability; format: cell-based; details: Homo sapiens, AML, 72 hour MTS
Procedure: as §2

[19] = tested on: THP-1; assay: Cytotoxicity, MTS cell viability; format: cell-based; details: Homo sapiens, AML, 72 hour MTS
Procedure: as §2

[20] = tested on: Ba/F3-ITD + D835Y (FLT3-ITD + D835Y); assay: Antiproliferative activity (Table 6); format: cell-based, Murin; details: 72 h
[21] = tested on: BTK pathway in EOL-1 cells; assay: Western blot analysis in EOL-1 cells; format: cell-based; details: 0.5, 5.0, and 50 nM, FIG. 3
Procedure: Immunoblot assays: Cells were treated with Compound 7 at various concentrations and collected for cell lysates. The total and phosphorylated levels of the indicated proteins were determined by Western Blot.

[22] = tested on: human cells (e.g., FLTs-ITD-mutated leukemia cells MV4-11); assay: Mouse xenograft model, tumor volume; format: in vivo, mice; details: several doses over a 22-day period, vs control or Ibrutinib
Procedure: Animal Study: Balb/c mice were injected (SQ) with human cells (e.g., FLTs-ITD-mutated leukemia cells MV4-11), and treated orally (q.d.) with the indicated doses of Compound 7 for 14 days. The effect (e.g., anti-leukemia) was assessed by measuring tumor burden. Oral toxicity was evaluated, for example, by measuring body weight. Compound 7 concentrations in plasma were measured at the indicated time points after dosing at the first day.

[23] = tested on: various heme cell lines (MV4-11, NOMO-1, and KG-1 cells); assay: Polyploidy, EdU and PI staining with FACS; format: cell-based; details: 24 hours, increasing concentrations
Procedure: MV4-11, NOMO-1, and KG-1 cells were treated at increasing concentrations of Compound 7 for 24 hours, and the increase in DNA content or polploidy phenotype was assessed using EdU and PI staining followed by FACS analysis using the BD Accuri C6 flow.

[24] = target: T2, C481S BTK (Homo sapiens, UniProt Q06187, C481S); assay: BTK phosphorylation in transfected HEK293T cells (Western blot); format: cell-based; details: HEK293T transfected with C481S BTK; 0.5 and 1.0 μM, six hours
T2 construct: expressed in transfected cells; host or cells: HEK293T
T2 sequence (Q06187 whole entry C481S): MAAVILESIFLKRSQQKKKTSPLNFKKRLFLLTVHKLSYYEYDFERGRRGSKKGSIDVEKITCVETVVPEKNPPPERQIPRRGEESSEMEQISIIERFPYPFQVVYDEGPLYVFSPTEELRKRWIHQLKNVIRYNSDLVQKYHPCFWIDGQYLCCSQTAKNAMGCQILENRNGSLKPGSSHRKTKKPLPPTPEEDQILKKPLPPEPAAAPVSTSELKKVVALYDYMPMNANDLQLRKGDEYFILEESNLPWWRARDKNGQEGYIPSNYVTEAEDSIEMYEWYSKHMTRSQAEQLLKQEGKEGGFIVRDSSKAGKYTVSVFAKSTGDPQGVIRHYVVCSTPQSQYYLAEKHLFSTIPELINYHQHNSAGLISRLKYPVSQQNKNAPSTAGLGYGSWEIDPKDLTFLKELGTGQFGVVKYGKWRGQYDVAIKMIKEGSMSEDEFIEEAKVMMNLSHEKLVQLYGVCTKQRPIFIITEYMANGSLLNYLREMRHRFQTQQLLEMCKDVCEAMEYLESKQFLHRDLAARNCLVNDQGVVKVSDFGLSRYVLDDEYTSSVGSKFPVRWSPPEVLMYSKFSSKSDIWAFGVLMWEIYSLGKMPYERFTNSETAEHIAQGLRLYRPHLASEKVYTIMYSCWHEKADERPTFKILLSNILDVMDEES
Procedure: (§3) HEK293T cells were transiently transfected with wild-type BTK or C481S BTK. The transfected cells were treated with or without Compound 7 (0.5 and 1.0 μM) for six hours. This was performed in triplicate and the results were analyzed by Western Blot analysis.

[25] = target: T3, wild-type BTK (Homo sapiens, UniProt Q06187); assay: as above; format: cell-based; details: HEK293T transfected with wild-type BTK; 0.5 and 1.0 μM, six hours
T3 construct: expressed in transfected cells; host or cells: HEK293T
T3 sequence (Q06187 whole entry): as the sequence (Q06187 whole entry C481S) above, with S481C counted along it
Procedure: as §3

[26] = tested on: Mino; assay: Apoptosis in B-cell malignancies (annexin V/PI, cleaved PARP); format: cell-based, human; details: increasing concentrations
Procedure: Mechanistic studies were undertaken to determine the mechanism of action for Compound 7. The apoptotic state of treated cells was determined by staining with annexin V and propidium iodide (PI), then analysis with the BD Accuri C6 flow cytometer, whereby live cells are annexin V/PI negative, early apoptotic cells are annexin V positive and late apoptotic cells are annexin V and PI positive. In addition production of cleaved PARP, a classic apoptotic marker, was assayed by western blotting with specific antibodies.

[27] = target: FLT3(ITD) (Homo sapiens, UniProt P36888); assay: Binding constant (Kd), competition binding with qPCR readout; design: other: FLT3(ITD); kinase-tagged T7 phage strains were prepared in an E. coli host derived from the BL21 strain; fused on or other part: T7 phage fusion or DNA tag for qPCR detection

For `Cc1cnc(-c2ccc(-c3ccc(NC(=O)Nc4c(F)cc(F)cc4F)cc3F)c3c2C(=O)NC3)[nH]1` [Compound 7, 1-{3-fluoro-4-[7-(5-methyl-1H-imidazol-2-yl)-1-oxo-2,3-dihydro-1H-isoindol-4-yl]-phenyl}-3-(2,4,6-trifluorophenyl)urea], the Kd [1] was 4.2 nM, the IC50 [2] was 13.6 nM and the IC50 [3] was 73.8 nM. The IC50 [4] was 5.98 nM, the IC50 [5] was 426 nM and the IC50 [6] was 1.51 nM. For the same molecule, the IC50 [7] was 2030 nM, the IC50 ([7]; Homo sapiens, 72 h) was 2030 nM and the IC50 [8] was 18.4 nM. It also gave an IC50 [9] of 0.045 nM, an IC50 [10] of 4690 nM and an IC50 [11] of 280 nM. For the same molecule, the IC50 [12] was 1590 nM, the IC50 [13] was 28.7 nM and the IC50 [14] was 794 nM. It also gave an IC50 [15] of 0.238 nM, an IC50 [16] of 0.395 nM and an IC50 [17] of 20.5 nM. It also gave an IC50 [18] of 816 nM, an IC50 [19] of 2970 nM and an IC50 [20] of 9.72 nM. For the same molecule, the “Inhibition of BTK pathway (Western blot)” value [21] was “inhibits BTK pathway”, the Tumor volume [22] was “reduces tumor volume with increased dose” and the Polyploidies [23] was “induce polyploidies”. For the same molecule, the “Inhibition of BTK (reduction in phosphorylated forms)” value [24] was “inhibits both wild-type and the C481S mutant form of BTK”, the “Inhibition of BTK (reduction in phosphorylated forms)” value [25] was “inhibits both wild-type and the C481S mutant form of BTK” and the “Apoptosis induction versus ibrutinib” value [26] was “induced apoptosis more effectively than ibrutinib at all concentrations tested”. For the same molecule, the Kd [27] was 3.1 nM.

Source: patent publication US20180344702A1, “METHODS FOR TREATING PATIENTS WITH HEMATOLOGIC MALIGNANCIES” (Aptose Biosciences, Inc., priority 2017, published 2018)
